Measurements as given in patent EP4775582A1, “MACROCYCLIC COMPOUND AND ANTIBODY-DRUG CONJUGATE THEREOF” (Genfleet Therapeutics (Shanghai) Inc., priority 2023, dated 2025).
Where two headings read alike, the source gives them in different places.

Legend:
AsPC-1 cells = assay: 3D cell proliferation assay (CellTiter Glo-3D), AsPC-1; type: cell-based, human; details: Homo sapiens, ASPC1, 120 h; AsPC-1 cells (KRAS G12D), 3D, 2% FBS, 5 days; read-out: AsPC-1 AP IC50
Summary of the method: (§1)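 IC50 values come from four-parameter fits of inhibition rate against log compound concentration, using CellTiter-Glo luminescence read after 5 days' exposure. AsPC-1 and NCI-H441 were plated at 800 cells per well in low-serum (2% FBS) medium. Compound was dosed the day after seeding, with incubation at 37 °C, 5% CO2.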

NCI-H441 cells = assay: 3D cell proliferation assay (CellTiter Glo-3D), NCI-H441; type: cell-based, human; details: Homo sapiens, 120 h, NCI-H441 cells (KRAS G12V), 2% FBS, 5 days, read-out: H441 AP IC50
Summary of the method: as §1

KRAS WT-cRAF = KRAS WT-cRAF (Homo sapiens, UniProt P01116+P62937); assay: Assay for binding of KRAS to cRAF (HTRF, with Cyclophilin A), KRAS WT
Procedure: (§3) The plate was centrifuged at 1000 rpm for 1 min and then incubated in the thermostatic incubator at 20 °C for 30 min. […] The plate was centrifuged at 1000 rpm for 1 min and then incubated in the thermostatic incubator at 20 °C for 60 min. […] The working solution was added to the aforementioned assay plate at 5 µL/well. The plate was centrifuged at 1000 rpm for 1 min and then incubated in the thermostatic incubator at 20 °C for 60 min.

KRAS G12V-cRAF = KRAS G12V-cRAF (Homo sapiens, UniProt P01116+P62937, G12V); assay: Assay for binding of KRAS to cRAF (HTRF, with Cyclophilin A), KRAS G12V
Procedure: as §3

AsPC-1 p-ERK = assay: Cell p-ERK assay (HTRF), AsPC-1 cells; type: cell-based, human; details: Homo sapiens, ASPC1; AsPC-1 cells (KRAS G12D), 3 h incubation; read-out: AsPC-1 p-ERK IC50
Summary of the method: (§2)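 Phospho-ERK (T202/Y204) was measured by HTRF in lysates after 3 h compound treatment at 37 °C. Cells had been plated the previous day at 20000 per well for NCI-H441 and 10000 per well for AsPC-1. Four-parameter dose-response fitting of % inhibition gave IC50 values.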

H441 p-ERK = assay: Cell p-ERK assay (HTRF), NCI-H441 cells; type: cell-based, human; details: Homo sapiens; NCI-H441 cells (KRAS G12V), 3 h incubation
Summary of the method: as §2

[1] = KRAS WT-cRAF binding assay(nM), GPPNP-KRAS WT, IC50 values
[2] = KRAS G12V-cRAF binding assay(nM), GPPNP-KRAS G12V, IC50 values
[3] = read-out: KRAS WT-cRAF binding assay, GPPNP-KRAS WT, IC50 values
[4] = read-out: KRAS G12V-cRAF binding assay, GPPNP-KRAS G12V, IC50 values

Sequence of KRAS WT-cRAF (P01116 1-188 isoform P01116-2): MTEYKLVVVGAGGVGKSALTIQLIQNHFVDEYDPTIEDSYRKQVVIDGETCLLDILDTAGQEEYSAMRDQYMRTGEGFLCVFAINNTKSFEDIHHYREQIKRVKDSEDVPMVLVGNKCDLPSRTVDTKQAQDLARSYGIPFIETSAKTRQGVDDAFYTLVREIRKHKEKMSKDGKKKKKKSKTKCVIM
Sequence of KRAS WT-cRAF (P62937 whole entry): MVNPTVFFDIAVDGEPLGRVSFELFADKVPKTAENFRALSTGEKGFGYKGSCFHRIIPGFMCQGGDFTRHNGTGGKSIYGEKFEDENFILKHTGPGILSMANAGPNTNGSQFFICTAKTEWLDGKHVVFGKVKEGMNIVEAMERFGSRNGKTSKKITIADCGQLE
Sequence of KRAS G12V-cRAF (P01116 1-188 isoform P01116-2 G12V): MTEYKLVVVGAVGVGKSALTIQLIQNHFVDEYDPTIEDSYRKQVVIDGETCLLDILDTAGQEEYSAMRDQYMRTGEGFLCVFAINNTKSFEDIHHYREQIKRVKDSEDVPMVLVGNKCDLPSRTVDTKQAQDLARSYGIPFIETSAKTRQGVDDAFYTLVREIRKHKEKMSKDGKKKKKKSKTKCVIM
Sequence of KRAS G12V-cRAF (P62937 whole entry): as the sequence (P62937 whole entry) above

| Compound | IC50 (AsPC-1 cells) [nM] | IC50 (NCI-H441 cells) [nM] | IC50 (KRAS WT-cRAF; [1]) [nM] | IC50 (KRAS G12V-cRAF; [2]) [nM] | IC50 (AsPC-1 p-ERK) [nM] | IC50 (H441 p-ERK) [nM] | IC50 (KRAS WT-cRAF; [3]) [nM] | IC50 (KRAS G12V-cRAF; [4]) [nM] |
| --- | --- | --- | --- | --- | --- | --- | --- | --- |
| CCn1c(-c2cc(C#CCN3CCS(=O)(=O)CC3)cnc2C(C)OC)c2c3cc(ccc31)-c1csc(n1)CC(NC(=O)C1C(C)C1C(=O)NCCO)C(=O)N1CCCC(N1)C(=O)OCC(C)(C)C2 (atropisomer, axis not shown; (Ra)) [Compound Z13-1, (1R,2R,3S)-N^1-((6^3S,4S,Z)-(Ra)-1^2-(5-(3-(1,1-dioxidothiomorpholino)prop-1-yn-1-yl)-2-((S)-1-methoxyethyl)pyridin-3-yl)-1^1-ethyl-10,10-dimethyl-5,7-dioxo-6^1,6^2,6^3,6^4,6^5,6^6-hexahydro-1^1H-8-oxa-2(4,2)-thiazola-1(5,3)-indola-6(1,3)-pyridazinacycloundecaphane-4-yl)-N^2-(2-hydroxyethyl)-3-methylcyclopropane-1,2-dicarboxamide] | 3.7 | 3.36 | 21.8 | 5.2 | – | – | – | – |
| CCn1c(-c2cc(C#CCN3CCS(=O)(=O)CC3)cnc2C(C)OC)c2c3cc(ccc31)-c1csc(n1)CC(NC(=O)C1C(C)C1C(=O)NCCO)C(=O)N1CCCC(N1)C(=O)OCC(C)(C)C2 (atropisomer, axis not shown; (Ra)) [Compound Z13-2, (1S,2S,3R)-N^1-((6^3S,4S,Z)-(Ra)-1^2-(5-(3-(1,1-dioxidothiomorpholino)prop-1-yn-1-yl)-2-((S)-1-methoxyethyl)pyridin-3-yl)-1^1-ethyl-10,10-dimethyl-5,7-dioxo-6^1,6^2,6^3,6^4,6^5,6^6-hexahydro-1^1H-8-oxa-2(4,2)-thiazola-1(5,3)-indola-6(1,3)-pyridazinacycloundecaphane-4-yl)-N^2-(2-hydroxyethyl)-3-methylcyclopropane-1,2-dicarboxamide] | – | – | 22.6 | 5.1 | – | – | – | – |
| CCn1c(-c2cc(C#CCN3CCS(=O)(=O)CC3)cnc2C(C)OC)c2c3cc(ccc31)-c1cc(N)cc(c1)CC(NC(=O)C1C(C)C1C)C(=O)N1CCCC(N1)C(=O)OCC(C)(C)C2 (atropisomer, axis not shown; (Ra)) [Compound Z22, (1r,2R,3S)-N-((6^3S,4S)-2^5-amino-(Ra)-1^2-(5-(3-(1,1-dioxidothiomorpholino)prop-1-yn-1-yl)-2-((S)-1-methoxyethyl)pyridin-3-yl)-1^1-ethyl-10,10-dimethyl-5,7-dioxo-6^1,6^2,6^3,6^4,6^5,6^6-hexahydro-1^1H-8-oxa-1(5,3)-indola-6(1,3)-pyridazina-2(1,3)-benzenacycloundecaphane-4-yl)-2,3-dimethylcyclopropane-1-carboxamide] | 8.37 | 2.31 | 47.5 | 18.6 | 1.54 | 1.09 | – | – |
| COCCn1c(-c2cc(C#CCN3CCN(C(=O)CO)CC3)cnc2C(C)OC)c2c3cc(ccc31)-c1csc(n1)CC(NC(=O)C1C3COCC31)C(=O)N1CCCC(N1)C(=O)OCC(C)(C)C2 (atropisomer, axis not shown; (Ra)) [Compound Z31-1, (1R,5S,6r)-N-((6^3S,4S,Z)-(Ra)-1^2-(5-(3-(4-(2-hydroxyacetyl)piperazin-1-yl)prop-1-yn-1-yl)-2-((S)-1-methoxyethyl)pyridin-3-yl)-1^1-(methoxyethyl)-10,10-dimethyl-5,7-dioxo-6^1,6^2,6^3,6^4,6^5,6^6-hexahydro-1^1H-8-oxa-2(4,2)-thiazola-1(5,3)-indola-6(1,3)-pyridazinacycloundecaphane-4-yl)-3-oxabicyclo[3.1.0]hexane-6-carboxamide] | 2.09 | 1.07 | 75 | 14.7 | 2.65 | 0.92 | – | – |
| CCn1c(-c2cc(C#CCN3CCC(C#N)(CN)CC3)c[n+]([O-])c2[C@H](C)OC)c2c3cc(ccc31)-c1csc(n1)C[C@H](NC(=O)[C@H]1[C@H](C)[C@@H]1C)C(=O)N1CCC[C@H](N1)C(=O)OCC(C)(C)C2 (atropisomer, axis not shown; (Ra)) [Compound Z57, 5-(3-(4-(aminomethyl)-4-cyanopiperidin-1-yl)prop-1-yn-1-yl)-(Ra)-3-((6^3S,4S,Z)-4-((1r,2R,3S)-2,3-dimethylcyclopropane-1-carboxamido)-1^1-ethyl-10,10-dimethyl-5,7-dioxo-6^1,6^2,6^3,6^4,6^5,6^6-hexahydro-1^1H-8-oxa-2(4,2)-thiazola-1(5,3)-indola-6(1,3)-pyridazinacycloundecaphane-1^2-yl)-2-((S)-1-methoxyethyl)pyridine 1-oxide] | 0.47 | 1.34 | – | – | 0.81 | 1.47 | 38.8 | 6.3 |
| CCn1c(-c2cc(C#CCN3CCS(=O)(=O)CC3)cnc2C(C)O)c2c3cc(ccc31)-c1csc(n1)CC(NC(=O)C1C(C)C1C)C(=O)N1CCCC(N1)C(=O)OCC(C)(C)C2 (atropisomer, axis not shown; (Ra)) [Compound Z60, (1r,2R,3S)-N-((6^3S,4S,Z)-(Ra)-1^2-(5-(3-(1,1-dioxidothiomorpholino)prop-1-yn-1-yl)-2-((S)-1-hydroxyethyl)pyridin-3-yl)-1^1-ethyl-10,10-dimethyl-5,7-dioxo-6^1,6^2,6^3,6^4,6^5,6^6-hexahydro-1^1H-8-oxa-2(4,2)-thiazola-1(5,3)-indola-6(1,3)-pyridazinacycloundecaphane-4-yl)-2,3-dimethylcyclopropane-1-carboxamide] | 0.32 | 0.16 | 15.3 | 15.2 | 0.28 | 0.15 | – | – |
| CCn1c(-c2cc(C#CCN3CCC(C#N)CC3)cnc2C(C)OC)c2c3cc(ccc31)-c1coc(n1)CC(NC(=O)C1C(C)C1C)C(=O)N1CCCC(N1)C(=O)OCC(C)(C)C2 (atropisomer, axis not shown; (Ra)) [Compound Z155, (1r,2R,3S)-N-((6^3S,4S,Z)-(Ra)^2-(5-(3-(4-cyanopiperidin-1-yl)prop-1-yn-1-yl)-2-((S)-1-methoxyethyl)pyridin-3-yl)-1^1-ethyl-10,10-dimethyl-5,7-dioxo-6^1,6^2,6^3,6^4,6^5,6^6-hexahydro-1^1H-8-oxa-2(4,2)-oxazola-1(5,3)-indola-6(1,3)-pyridazinacycloundecaphan-4-yl)-2,3-dimethylcyclopropanecarboxamide] | – | – | 18.7 | 8.29 | – | – | – | – |
| CCn1c(-c2cc(C#CCN3CCC(C#N)CC3)cnc2C(C)OC)c2c3cc(ccc31)-c1coc(n1)CC(NC(=O)C1C3COCC31)C(=O)N1CCCC(N1)C(=O)OCC(C)(C)C2 (atropisomer, axis not shown; (Ra)) [Compound Z168, (1R,5S,6r)-N-((6^3S,4S,Z)-(Ra)-1^2-(5-(3-(4-cyanopiperidin-1-yl)prop-1-yn-1-yl)-2-((S)-1-methoxyethyl)-pyridin-3-yl)-1^1-ethyl-10,10-dimethyl-5,7-dioxo-6^1,6^2,6^3,6^4,6^5,6^6-hexahydro-1^1H-8-oxa-2(4,2)-oxazola-1(5,3)-indola-6(1,3)-pyridazinacycloundecaphane-4-yl)-3-oxabicyclo[3.1.0]hexane-6-carboxamide] | – | – | 16.4 | 7.75 | 0.03 | 0.09 | – | – |
| CCn1c(-c2cc(C#CCN3CCC(C#N)CC3)cnc2[C@H](C)NC)c2c3cc(ccc31)-c1csc(n1)C[C@H](NC(=O)[C@H]1[C@@H]3COC[C@@H]31)C(=O)N1CCC[C@H](N1)C(=O)OCC(C)(C)C2 (atropisomer, axis not shown; (Ra)) [Compound Z169-1, (1R,5S,6r)-N-((6^3S,4S,Z)-(Ra)-1^2-(5-(3-(4-cyanopiperidin-1-yl)prop-1-yn-1-yl)-2-((S)-1-(methylamino)ethyl)pyridin-3-yl)-1^1-ethyl-10,10-dimethyl-5,7-dioxo-6^1,6^2,6^3,6^4,6^5,6^6-hexahydro-1^1H-8-oxa-2(4,2)-thiazola-1(5,3)-indola-6(1,3)-pyridazinacycloundecaphane-4-yl)-3-oxabicyclo[3.1.0]hexane-6-carboxamide] | – | – | – | – | – | – | 58.2 | 17.5 |
